In brackets after ≈: the same amount, converted by molar mass. Where a name gives a salt, the structure may show the parent alone. Read-outs that look alike come from different tables or passages of the source.
Experiments:
Type in all cases: physicochemical
[1] = Stability test at high temperature and in accelerated conditions (HPLC purity, XRPD, DSC); conditions: for Stability study: Crystal form: 2 weeks (XRPD); for 2-week physical and chemical stabilities: high temperature (60° C.) and accelerated conditions (40° C./75% RH), result in words
Method: About 1 mg of crystal form 1 of a compound of formula I and 1 mg of crystal form D of a phosphate of a compound of formula I samples were weighed and each was placed into a 40 mL transparent glass bottle, the samples were placed in a stability chamber in accelerated conditions (40° C./75% RH, open) and at a high temperature (60° C., sealed) respectively. For the open samples, the bottle cap was removed and the bottle neck was covered with aluminium-foil paper stabbed with pinholes to avoid cross contamination; for the closed samples, each bottle was covered with a cap and sealed tightly. Samples were taken at week 1 and week 2, respectively, after diluted with diluent (acetonitrile/water (1/1) (v/v), the liquid phases were injected according to the chromatographic conditions in Table 12 to determine sample purities.
The sample purities were calculated with an area normalization method.

[2] = Dynamic vapor sorption (DVS) hygroscopicity test; conditions: for Hygroscopicity: weight gain by moisture absorption: 0% RH-95% RH, 25° C.; for change of crystal form before and after the DVS test: result in words
Method: (§1) DSC, TGA and DVS tests were conducted for crystal form A of a hydrochloride of a compound of formula I, crystal form B of a sulfate of a compound of formula I, crystal form C of a hydrobromide of a compound of formula I and crystal form D of a phosphate of a compound of formula I.

[3] = Solubility test in water, SGF, FaSSIF and FeSSIF (37° C., HPLC); conditions: for difference in the equilibrium solubilities (24 h) between crystal form 1 and crystal form D: FaSSIF and FeSSIF, result in words; for Solubility (based on a compound of formula I) / solubility at 30 min / solubility at 2 h / solubility at 4 h / solubility at 24 h: 37° C.; for solubility at 30 min / solubility at 2 h / solubility at 4 h / solubility at 24 h: 37 °C, thermodynamic from solid, read-out: Solubility (based on a compound of formula I)
Method: 4 samples, each of crystal form 1 of a compound of formula I and crystal form D of a phosphate of a compound of formula I each with appropriate amount were weighed and placed into a 4 mL transparent glass bottle respectively, 1 mL of water, simulated gastric fluid (SGF), fasted-state simulated intestinal fluid (FaSSIF) and fed-state simulated intestinal fluid (FeSSIF) were added respectively, sample suspension was obtained and quickly placed on a shaker (37° C., 200 rpm) and the shaker was shaked, the samples were observed 5 minutes later, a quantity of samples or medium were supplemented to obtain mild suspension, samples were taken at 30 minutes, 2 hours, 4 hours and 24 hours, respectively, centrifuged for 10 minutes at 12000 rpm, the supernatants were collected, diluted appropriately and then were tested by a higher performance liquid chromatography.
The sample concentrations were calculated with an external standard method.

[4] = DSC test of salt crystal forms (thermostability); conditions: single and higher melting points, result in words
Method: as §1

Question: What does the source list for C[C@@H](O)c1nc2cnc3ccoc3c2n1[C@H]1CC[C@H](CC#N)OC1 [Crystal form 1 of a compound of formula I] [2-[(2R,5S)-5-[2-[(R)-1-hydroxyethyl]furo[3,2-b]imidazo[4,5-d]pyridin-1-yl]tetrahydropyran-2-yl]acetonitrile]?
Answer: Stability study (purity) ([1]; 0 day): 98.74 Area %; Stability study (purity) ([1]; 40° C./75% RH, open, 1 week): 98.71 Area %; Stability study (purity) ([1]; 40° C./75% RH, open, 2 weeks): 98.77 Area %; Stability study: Crystal form ([1]; 40° C./75% RH, open): Unchanged; Stability study (purity) ([1]; 60° C., sealed, 1 week): 98.73 Area %; Stability study (purity) ([1]; 60° C., sealed, 2 weeks): 98.74 Area %; Stability study: Crystal form ([1]; 60° C., sealed): Unchanged; 2-week physical and chemical stabilities [1]: good; Hygroscopicity: weight gain by moisture absorption ([2]; DVS): 5.2%; Hygroscopicity: weight gain by moisture absorption ([2]; DVS, listed as crystal form 1 of a compound of formula I): 5.2%; water remaining after desorption ([2]; DVS, desorption 95% RH to 0% RH): 2%; difference in the equilibrium solubilities (24 h) between crystal form 1 and crystal form D [3]: no obvious difference; Solubility (based on a compound of formula I) ([3]; Fasted-state simulated intestinal fluid (FaSSIF), 30 min): 170 µg/mL; Solubility (based on a compound of formula I) ([3]; Fasted-state simulated intestinal fluid (FaSSIF), 2 h, listed as Crytstal form 1 of a compound of formula I): 190 µg/mL; Solubility (based on a compound of formula I) ([3]; Fasted-state simulated intestinal fluid (FaSSIF), 4 h, listed as Crytstal form 1 of a compound of formula I): 160 µg/mL; Solubility (based on a compound of formula I) ([3]; Fasted-state simulated intestinal fluid (FaSSIF), 24 h, listed as Crytstal form 1 of a compound of formula I): 170 µg/mL; Solubility (based on a compound of formula I) ([3]; Simulated gastric fluid (SGF), 30 min, listed as Crytstal form 1 of a compound of formula I): 16520 µg/mL; Solubility (based on a compound of formula I) ([3]; Simulated gastric fluid (SGF), 2 h, listed as Crytstal form 1 of a compound of formula I): 16710 µg/mL; Solubility (based on a compound of formula I) ([3]; Simulated gastric fluid (SGF), 4 h, listed as Crytstal form 1 of a compound of formula I): 16880 µg/mL; Solubility (based on a compound of formula I) ([3]; Simulated gastric fluid (SGF), 24 h (equilibrium), listed as Crytstal form 1 of a compound of formula I): 16420 µg/mL; Solubility (based on a compound of formula I) ([3]; Water, 30 min, listed as Crytstal form 1 of a compound of formula I): 160 µg/mL; Solubility (based on a compound of formula I) ([3]; Water, 2 h, listed as Crytstal form 1 of a compound of formula I): 180 µg/mL; Solubility (based on a compound of formula I) ([3]; Water, 4 h, listed as Crytstal form 1 of a compound of formula I): 160 µg/mL; Solubility (based on a compound of formula I) ([3]; Water, 24 h (equilibrium), listed as Crytstal form 1 of a compound of formula I): 180 µg/mL

Question: Which solubility at 30 min ([3]; fasted-state simulated intestinal fluid (FaSSIF), fassif, Fasted-state simulated intestinal fluid (FaSSIF), 30 min) does the source give for C[C@@H](O)c1nc2cnc3ccoc3c2n1[C@H]1CC[C@H](CC#N)OC1 [2-[(2R,5S)-5-[2-[(R)-1-hydroxyethyl]furo[3,2-b]imidazo[4,5-d]pyridin-1-yl]tetrahydropyran-2-yl]acetonitrile] here?
Answer: 170 µg/mL (≈ 521 µM)

Question: And the solubility at 2 h ([3]; fasted-state simulated intestinal fluid (FaSSIF), fassif, Fasted-state simulated intestinal fluid (FaSSIF), 2 h)?
Answer: 170 µg/mL (≈ 521 µM)

Question: And the solubility at 4 h ([3]; fasted-state simulated intestinal fluid (FaSSIF), fassif, Fasted-state simulated intestinal fluid (FaSSIF), 4 h)?
Answer: 170 µg/mL (≈ 521 µM)

Question: What about the solubility at 24 h ([3]; fasted-state simulated intestinal fluid (FaSSIF), fassif, Fasted-state simulated intestinal fluid (FaSSIF), 24 h) of the same compound?
Answer: 160 µg/mL (≈ 490 µM)

Question: What about the solubility at 30 min ([3]; fed-state simulated intestinal fluid (FeSSIF), fessif, Fed-state simulated intestinal fluid (FeSSIF), 30 min) of the same compound?
Answer: 260 µg/mL (≈ 797 µM)

Question: What about the solubility at 2 h ([3]; fed-state simulated intestinal fluid (FeSSIF), fessif, Fed-state simulated intestinal fluid (FeSSIF), 2 h) of the same compound?
Answer: 230 µg/mL (≈ 705 µM)

Question: And the solubility at 4 h ([3]; fed-state simulated intestinal fluid (FeSSIF), fessif, Fed-state simulated intestinal fluid (FeSSIF), 4 h)?
Answer: 220 µg/mL (≈ 674 µM)

Question: And the solubility at 24 h ([3]; fed-state simulated intestinal fluid (FeSSIF), fessif, Fed-state simulated intestinal fluid (FeSSIF), 24 h)?
Answer: 240 µg/mL (≈ 735 µM)

Question: What about the solubility at 30 min ([3]; simulated gastric fluid (SGF), simulated gastric fluid, Simulated gastric fluid (SGF), 30 min) of the same compound?
Answer: 30200 µg/mL (≈ 92600 µM)

Question: And the solubility at 2 h ([3]; simulated gastric fluid (SGF), simulated gastric fluid, Simulated gastric fluid (SGF), 2 h)?
Answer: 29700 µg/mL (≈ 91100 µM)

Question: What about the solubility at 4 h ([3]; simulated gastric fluid (SGF), simulated gastric fluid, Simulated gastric fluid (SGF), 4 h) of the same compound?
Answer: 29500 µg/mL (≈ 90300 µM)

Question: What about the solubility at 24 h ([3]; simulated gastric fluid (SGF), simulated gastric fluid, Simulated gastric fluid (SGF), 24 h (equilibrium)) of the same compound?
Answer: 30200 µg/mL (≈ 92500 µM)

Question: For C[C@@H](O)c1nc2cnc3ccoc3c2n1[C@H]1CC[C@H](CC#N)OC1 [Crystal form D of a phosphate of a compound of formula I] [2-[(2R,5S)-5-[2-[(R)-1-hydroxyethyl]furo[3,2-b]imidazo[4,5-d]pyridin-1-yl]tetrahydropyran-2-yl]acetonitrile], which “Stability study (purity)” value ([1]; 0 day) is on record?
Answer: 99.13 Area %

Question: And the “Stability study (purity)” value ([1]; 40° C./75% RH, open, 1 week)?
Answer: 99.11 Area %

Question: And the “Stability study (purity)” value ([1]; 40° C./75% RH, open, 2 weeks)?
Answer: 99.10 Area %

Question: And the “Stability study: Crystal form” value ([1]; 40° C./75% RH, open)?
Answer: Unchanged

Question: And the “Stability study (purity)” value ([1]; 60° C., sealed, 1 week)?
Answer: 99.11 Area %

Question: And the “Stability study (purity)” value ([1]; 60° C., sealed, 2 weeks)?
Answer: 99.11 Area %

Question: What about the “Stability study: Crystal form” value ([1]; 60° C., sealed) of the same compound?
Answer: Unchanged

Question: And the “2-week physical and chemical stabilities” value [1]?
Answer: good

Question: And the “thermostability of the crystal form” value [4]?
Answer: relatively good

Question: What about the “Hygroscopicity: weight gain by moisture absorption” value (“Hygroscopicity: weight gain” for short) ([2]; DVS) of the same compound?
Answer: 4.7%

Question: What about the “Hygroscopicity: weight gain” value ([2]; DVS, listed as crystal form D of a phosphate of a compound of formula I) of the same compound?
Answer: 4.7%

Question: And the “change of crystal form before and after the DVS test” value [2]?
Answer: no significant changes

Question: What about the “difference in the equilibrium solubilities (24 h) between crystal form 1 and crystal form D” value [3] of the same compound?
Answer: no obvious difference

Question: And the “Solubility (based on a compound of formula I)” value ([3]; Fed-state simulated intestinal fluid (FeSSIF), 30 min)?
Answer: 360 µg/mL

Question: And the “Solubility (based on a compound of formula I)” value ([3]; Fed-state simulated intestinal fluid (FeSSIF), 2 h)?
Answer: 220 µg/mL

Question: And the “Solubility (based on a compound of formula I)” value ([3]; Fed-state simulated intestinal fluid (FeSSIF), 4 h)?
Answer: 190 µg/mL

Question: What about the “Solubility (based on a compound of formula I)” value ([3]; Fed-state simulated intestinal fluid (FeSSIF), 24 h) of the same compound?
Answer: 210 µg/mL

Question: What about the “equilibrium solubility (24 h) relative to crystal form 1 of a compound of formula I” value ([3]; SGF) of the same compound?
Answer: 2 times

Question: And the “Solubility (based on a compound of formula I)” value ([3]; Water, 30 min)?
Answer: 1850 µg/mL

Question: What about the “Solubility (based on a compound of formula I)” value ([3]; Water, 2 h) of the same compound?
Answer: 1780 µg/mL

Question: What about the “Solubility (based on a compound of formula I)” value ([3]; Water, 4 h) of the same compound?
Answer: 1730 µg/mL

Question: What about the “Solubility (based on a compound of formula I)” value ([3]; Water, 24 h (equilibrium)) of the same compound?
Answer: 1800 µg/mL

Question: And the “equilibrium solubility (24 h) relative to crystal form 1 of a compound of formula I” value ([3]; water)?
Answer: 10 times

Question: For C[C@@H](O)c1nc2cnc3ccoc3c2n1[C@H]1CC[C@H](CC#N)OC1 [Crystal form B of a sulfate of a compound of formula I] [2-[(2R,5S)-5-[2-[(R)-1-hydroxyethyl]furo[3,2-b]imidazo[4,5-d]pyridin-1-yl]tetrahydropyran-2-yl]acetonitrile], which “thermostability of the crystal form” value [4] is on record?
Answer: relatively good

Question: What about the “Hygroscopicity: weight gain” value ([2]; DVS) of the same compound?
Answer: 9.4%

Question: What about the “Hygroscopicity: weight gain” value ([2]; DVS, listed as crystal form B of a sulfate of a compound of formula I) of the same compound?
Answer: 9.4%

Question: And the “change of crystal form before and after the DVS test” value [2]?
Answer: no significant changes

Source: US12195476B2, “Synthesis method of furoimidazopyridine compound, crystal form of furoimidazopyridine compound, and crystal form of salt thereof” (HANGZHOU HIGHLIGHTLL PHARMACEUTICAL CO., LTD, priority 2019, dated 2025)
